How the values were obtained:
PYL3 = target: T1, PYL3 (Arabidopsis thaliana, UniProt Q9SSM7); test: Protein dephosphorylation enzyme activity test, PYL3; format: biochemical, thale cress; conditions: control = 100%
T1 construct: 6xHis (N); made in house; host or cells: Escherichia coli BL21-codonplus(DE3)-RIPL (PYL); BL21(DE3)pLysS (HAB1)
T1 sequence (Q9SSM7 1-209): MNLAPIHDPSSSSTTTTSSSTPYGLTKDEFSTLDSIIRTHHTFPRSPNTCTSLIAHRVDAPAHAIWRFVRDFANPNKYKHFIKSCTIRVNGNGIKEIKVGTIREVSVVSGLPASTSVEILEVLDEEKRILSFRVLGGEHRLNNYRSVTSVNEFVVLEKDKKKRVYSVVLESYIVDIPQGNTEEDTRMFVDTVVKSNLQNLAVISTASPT
Protocol: (§1) A plasmid (pGex-2T-GST-HAB1 or pET28-6×His-PYL) encoded with PYR/PYL/RCAR proteins (PYL, abscisic acid receptor) or protein dephosphorylation enzyme HAB1 of thale cress was transformed to Escherichia coli (HAB1:BL21(DE3)pLysS, PYL:BL21-codonplus(DE3)-RIPL). Isopropyl-β-thiogalactopyranoside was added to the culture broth, which had been subjected to pre-culture (30° C., 180 rpm, 15 hours) and main culture (30° C., 180 rpm, 4 hours), and the protein-expressed (16° C., 150 rpm, 18 hours) crude enzyme solution was purified using FPLC thereby preparing the recombined PYL (PYR1, PYL1-6, PYL8-10) and HAB1. β-Mercaptoethanol, a manganese chloride aqueous solution, HAB1, PYL, a solution of the sample in dimethylsulfoxide and ultrapure water were sequentially added to a 96-well plate, allowed to stand at 22° C. for 30 minutes. Subsequently p-nitrophenylphosphate, which is the artificial substrate of HAB1, was added thereto to start the reaction, and the plate was placed in a microplate reader (TECAN, Infinite™ N200 NanoQuant). The absorbance at 405 nm due to p-nitrophenol, which is the hydrolysate of p-nitrophenylphosphate, was measured 3 minutes later from the reaction initiation, and HAB1 activity was calculated by the following formula (2). Note that the fraction to which only dimethylsulfoxide was added was considered to be the control and the activity thereof was defined as 100%. […] HAB1 specific activity (%)=Absorbance when sample was added/Absorbance of control×100 (2)

PYL6 = target: T2, PYL6 (Arabidopsis thaliana, UniProt Q8S8E3); test: Protein dephosphorylation enzyme activity test, PYL6; format: biochemical, thale cress; conditions: control = 100%
T2 construct: 6xHis (N); made in house; host or cells: Escherichia coli BL21-codonplus(DE3)-RIPL (PYL); BL21(DE3)pLysS (HAB1)
T2 sequence (Q8S8E3 1-215): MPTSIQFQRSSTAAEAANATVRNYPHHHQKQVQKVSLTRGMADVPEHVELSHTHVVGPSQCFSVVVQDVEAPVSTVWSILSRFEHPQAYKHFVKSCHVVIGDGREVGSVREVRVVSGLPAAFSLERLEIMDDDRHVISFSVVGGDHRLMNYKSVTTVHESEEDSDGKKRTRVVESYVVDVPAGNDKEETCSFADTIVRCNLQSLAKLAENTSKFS
Protocol: as §1

recombined PYL5 = target: T3, recombined PYL5 (Arabidopsis thaliana, UniProt Q9FLB1); test: Bonding affinity measurement using an isothermal titration calorimeter; format: binding, thale cress; conditions: ITC, 20° C., sodium phosphate buffer
T3 construct: 6xHis (N); made in house; host or cells: Escherichia coli BL21-codonplus(DE3)-RIPL
T3 sequence (Q9FLB1 1-203): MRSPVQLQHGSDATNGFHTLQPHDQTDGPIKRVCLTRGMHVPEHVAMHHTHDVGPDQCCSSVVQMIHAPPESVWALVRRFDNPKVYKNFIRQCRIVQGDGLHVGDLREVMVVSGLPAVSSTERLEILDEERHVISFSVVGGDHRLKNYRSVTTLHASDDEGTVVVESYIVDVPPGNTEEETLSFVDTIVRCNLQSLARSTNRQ
Protocol: A sodium phosphate buffer solution of a recombined PYL5 was prepared in the same procedure as in Test Example 5, and put in a reaction cell of an isothermal titration calorimeter (GE Healthcare, MicroCal iTC200), and a sodium phosphate buffer solution of the compound of Example 1 was put in the syringe. Then, the calorimeter was set to 20° C. and the measurement was carded out. The same measurement as above was also carried out for the compounds of Examples 7 to 9.

PYL2 = target: T4, PYL2 (Arabidopsis thaliana, UniProt O80992); test: Protein dephosphorylation enzyme activity test, PYL2; format: biochemical, thale cress; conditions: control = 100%
T4 construct: 6xHis (N); made in house; host or cells: Escherichia coli BL21-codonplus(DE3)-RIPL (PYL); BL21(DE3)pLysS (HAB1)
T4 sequence (O80992 1-190): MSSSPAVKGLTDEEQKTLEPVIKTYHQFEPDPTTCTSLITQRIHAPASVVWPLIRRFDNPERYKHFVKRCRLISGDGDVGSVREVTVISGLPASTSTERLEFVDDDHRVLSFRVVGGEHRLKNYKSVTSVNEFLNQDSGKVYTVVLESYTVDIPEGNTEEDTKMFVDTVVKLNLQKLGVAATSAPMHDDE
Protocol: as §1

[1] = tested on: seeds of thale cress (Arabidopsis thaliana, Col-0); test: Thale cress seed germination test; format: in vivo
Protocol: Seeds of thale cress (Arabidopsis thaliana, Col-0) were immersed in 500 μL of an aqueous solution of 70% ethanol for 30 minutes, subsequently in 500 μL of a 100% ethanol solution for 1 minute, washed five times in 1 mL of distilled water, then immersed in distilled water and, in a dark place, vernalized at 4° C. for 3 days. A solution of the sample in methanol was put in a 1.5 mL-microtube, and methanol was removed therefrom under reduced pressure. An aqueous solution of 0.5% agar (containing ½ MS medium inorganic salts) at 70° C. was added thereto and stirred, and subsequently the obtained mixture was placed in a 96-well plate to prepare the medium containing the sample. All samples were prepared so as to have a concentration of 3 μM of the compound in Examples 1 to 9 and Comparative Example 1. Further, when ABA is applied, the ABA concentration was adjusted to 0.3 μM. 20 to 30 vernalized seeds of thale cress were planted in each well and cultured at 22° C. under continuous light to monitor the number of seeds germinated over time. The germination rate was calculated by the following formula (1). Note that those cultured in medium prepared using methanol in the same manner were used as controls. […] Germination rate (%)=Number of seeds germinated/Number of seeds planted×100 (1)
The same test was carried out as in Test Example 1 with the concentrations of the compound of Example 1 for treatment varying from 0.3 μM to 30 μM.
Similarly, the same test was carried out with the concentrations of the compound of Example 2 for treatment varying from 0.3 μM to 30 μM.
The same test was carried out as in Test Example 2 with the concentrations of the compounds for treatment varying from 0.3 μM to 3 μM to compare the recovery effects on seed germination rate of the compound of Example 1 and the compound of Comparative Example 1.

[2] = 3 μM compound co-applied with 0.3 μM ABA

Structure (SMILES)	HAB1 Specific activity (%) PYL3 (PYL3; ABA + compound) [%]	HAB1 Specific activity (%) PYL3 (PYL3; sample alone) [%]	HAB1 Specific activity (%) PYL6 (PYL6; ABA + compound) [%]	HAB1 Specific activity (%) PYL6 (PYL6; sample alone) [%]	Kd (recombined PYL5) [nM]	ΔG (recombined PYL5) [kcal/mol]	ΔH (recombined PYL5) [kcal/mol]	−TΔS (recombined PYL5) [kcal/mol]	HAB1 Specific activity (%) PYL2 (PYL2; ABA + compound) [%]	HAB1 Specific activity (%) PYL2 (PYL2; sample alone) [%]	Germination rate (%) 24 Hours later [1, 2] [%]	Germination rate (%) 36 Hours later [1, 2] [%]	Germination rate (%) 48 Hours later [1, 2] [%]	Germination rate (%) 60 Hours later [1, 2] [%]	Germination rate (%) 24 Hours later ([1]; compound alone, 3 μM) [%]	Germination rate (%) 36 Hours later ([1]; compound alone, 3 μM) [%]	Germination rate (%) 48 Hours later ([1]; compound alone, 3 μM) [%]	Germination rate (%) 60 Hours later ([1]; compound alone, 3 μM) [%]	further results
CC1=C[C@@H](OCC#Cc2ccc(C)cc2)CC(C)(C)[C@@]1(O)/C=C/C(C)=C\C(=O)O [Example 7]	61	121	61.0	93.5	70 ± 20	-9.6 ± 0.2	-5.5 ± 0.1	-4.2	113	133	0	76	100	100	0	86	100	100	–
CC1=CC(=O)CC(C)(C)[C@@]1(O)/C=C/C(C)=C\C(=O)O [ABA, abscisic acid]	–	16.8	–	19.5	880 ± 110	-8.1 ± 0.1	-7.8 ± 0.1	-0.3	–	13.1	–	–	–	–	–	–	–	–	Germination rate (%) 24 Hours later ([1]; ABA alone, 0.3 μM): 0%; Germination rate (%) 36 Hours later ([1]; ABA alone, 0.3 μM): 0%; Germination rate (%) 48 Hours later ([1]; ABA alone, 0.3 μM): 16.2%; Germination rate (%) 60 Hours later ([1]; ABA alone, 0.3 μM): 32.6%
CC1=C[C@@H](OCC#Cc2ccccc2)CC(C)(C)[C@@]1(O)/C=C/C(C)=C\C(=O)O [Example 1, (2Z,4E)-5-((1S,4S)-1-hydroxy-2,6,6-trimethyl-4-((3-phenylprop-2-yn-1-yl)oxy)cyclohex-2-en-1-yl)-3-methylpenta-2,4-dienoic acid]	49.2	88.6	87.6	122	70 ± 20	-9.6 ± 0.1	-7.9 ± 0.1	-1.7	84.8	96.6	0	79	100	100	0	86	100	100	Recovery of seed germination rate decreased by ABA ([1]; compound 0.3 μM to 30 μM co-applied with ABA): seed germination rates decreased by ABA are recovered; Recovery effect on seed germination rate, comparison ([1]; compounds 0.3 μM to 3 μM, co-applied with ABA): excels in the recovery effect on seed germination rate more than the compound of Comparative Example 1
